Columns and labels:
[1] = Cytotoxicity MTT assay on RAW 264.7 cells; type: cell-based, Murine; details: mouse, RAW 264.7 macrophage cells, 48 h incubation, read-out: IC50, cytotoxic effect on RAW264.7 cells
Experimental: Murine macrophage RAW 264.7 cell line obtained from the American Type Culture Collection (Rockville, MD, United States) was maintained in DMEM supplemented with 10% fetal calf serum (FCS) and 1% penicillin/streptomycin/fungizone (PSF) under standard cell culture conditions at 37°C and 5% CO2 in a humidified environment.
The cytotoxic effect of compounds on RAW 264.7 cells was assessed using the 3-(4, 5-dimethylthiazol-2-yl)-2, 5-diphenyl tetrazolium bromide (MTT) assay as established by Mosmann ([Mosmann, 1983]) with slight modifications. Briefly, cells were seeded at a density of 1 × 10^5 cells/mL (100 µL) in 96-well microtitre plates and incubated at 37°C and 5% CO2 in a humidified environment. After 24 h incubation, 100 µL of compounds (at concentration ranged from to 250 μM–1.95 µM) were added to the wells containing cells and further incubated for 48 h in a CO2 incubator. A suitable control (untreated cells) was included and doxorubicin was used as a positive reference. Thereafter, the medium in each well was aspirated from the cells, which were then washed with PBS, and finally fresh medium (200 µL) was added to each well. Then, 30 µL of MTT (5 mg/mL in PBS) was added to each well and the plates were incubated at 37°C for 4 h. The medium was aspirated from the wells and DMSO was added to solubilize the formed formazan crystals. The absorbance was read at 570 nm (SpectraMax 190, Molecular devices). The percentage of cell inhibition was calculated with reference to the control (untreated cells taken as 100% viability). Then, the IC50 values of plant compounds showing more than 50% cell growth inhibition were calculated by plotting the percentage inhibition against the concentration.

[2] = tested on: RAW 264.7 macrophage cells; design: method as in Sukandar et al., 2023; details: final concentration of 100 μM, ref Sukandar et al., 2023; cited from earlier work
[3] = tested on: NO production; design: method as in Liu et al., 2016; details: ref Liu et al., 2016; read-out: IC50, inhibition of NO production; cited from earlier work

Q: With `CC(C)=CCCC1(C)C=Cc2c(cc3oc4c(O)ccc(O)c4c(=O)c3c2O)O1` (stereo not shown) [Compound 3, Smeathxanthone B] as the compound, how does the IC50 at 48 h [1] read?
A: > 100 µM

Q: And the melting point?
A: 187 to 189 °C

Q: Which IC50 at 48 h [1] does the source give for `COc1cccc2c1C(=O)c1c(O)c3c(c(O)c1C2=O)C[C@@](O)(C(=O)CO)C[C@@H]3O[C@H]1C[C@H](N)[C@H](O)[C@H](C)O1` [Doxorubicin, doxorubicin, reference compound] here?
A: 4.63 µM

Q: For `CC12CCC3C1C(c1c(cc(O)c(C(=O)c4ccccc4)c1O)O2)C3(C)C` (stereo not shown) [clusiacyclol A], which NO inhibition [2] is on record?
A: over 85%

Q: What about the “cytotoxicity (in words)” value [2] of the same compound?
A: without obvious cytotoxicity

Q: For garcinoxanthone B, which IC50 [3] is on record?
A: 11.3 µM

Q: Which IC50 [3] does the source give for garcinoxanthone C here?
A: 18 µM

From publication PMC11180795 (Frontiers in Pharmacology, 2024)
